Data: US20160220557A1, “USE OF ACETYL-COA CARBOXYLASE INHIBITORS FOR TREATING ACNE VULGARIS” (PFIZER INC., priority 2013, published 2016)
Several values for one entry are separate records, joined by “and”; a condition that tells them apart may be missing. Identical values can stand only once.

How the values were obtained:
[1] = target: T1, recombinant human ACC1 (rhACC1) (Homo sapiens, UniProt Q13085, DEL44-44); experiment: Transcreener ADP detection FP assay, recombinant human ACC1 inhibition; format: biochemical; settings: recombinant human ACC1, 50 μM ATP; read-out: Transcreener Assay hACC1 IC50
T1 construct: His6 (N); made in house; host or cells: SF9 insect cells (baculovirus)

[2] = system: sebum production; experiment: Effect on sebum levels in healthy human volunteers (Sebumeter, Sebutape lipid classes); format: in vivo; settings: 200 mg BID oral, 14 days
Experimental: Otherwise healthy overweight or obese subjects were admitted to the Clinical Research Institute and dosed orally with Example 1 (200 mg BID) or placebo for 14 consecutive days. On two days pre-treatment and days 13 and 14 (post-treatment) of the study, sebum production was assessed by Sebumeter® measurements and sebum was collected for lipid component identification and quantification. In order to prepare the area of the skin where the Sebumeter® measurements and the sebum collection will be performed, the skin surface has to be cleansed from any lipids and debris. The targeted area on the forehead and the cheeks were gently blotted using an oil-absorbing tissue or gauze. After blotting, wipes or gauze pads presoaked in 70% ethanol solution were used to wipe the forehead and cheeks. Following cleansing, the skin was allowed to dry and sebum measurements were made using a clean, calibrated Sebumeter® SM 815 (Courage+Khazaka, Köln, Germany) in accordance with the manufactures directions at 5 minutes and 3 hours post-cleansing. Sebum levels determined by Sebumeter® are expressed as relative change from pre-treatment baseline for subjects treated with placebo and Example 1 and are presented in FIG. 4. The Sebutape® technique was used for sebum collection. At approximately 9 AM, following facial cleansing and the 5 minute post-cleanse sebumeter measurement, 4 Sebutape® strips were applied: 2 patches placed right and left on the forehead cranial of the middle line of the eye and 2 patches on the cheeks caudal of the middle line of the eye. The Sebutape® was peeled from its backing paper using defatted forceps and affixed to the surface with gentle pressure to assure adequate adhesion. Surgical gloves were to be worn by the person handling the tape. After 1 hour, the 4 patches were removed; the 2 left patches and the 2 right patches were placed in acid-washed, Teflon-capped screw-cap vials. Sebum lipid species were quantified from the Sebutape® samples by Metabolon using their TrueMass® technology platform. Analysis of these sebum samples enabled assessment of the effect of Example 1 vs. placebo on individual sebum lipid classes. […] Individual subject level and box plots depicting means with confidence intervals are shown for sebum triglycerides, wax esters, and free fatty acids (FIG. 5).

[3] = target: T2, CYP2B6 (Homo sapiens, UniProt P20813); experiment: P450 inhibition in liver microsomes with probe substrates; format: in vitro ADME
T2 construct: from tissue; host or cells: liver microsomes
T2 sequence (P20813 1-491): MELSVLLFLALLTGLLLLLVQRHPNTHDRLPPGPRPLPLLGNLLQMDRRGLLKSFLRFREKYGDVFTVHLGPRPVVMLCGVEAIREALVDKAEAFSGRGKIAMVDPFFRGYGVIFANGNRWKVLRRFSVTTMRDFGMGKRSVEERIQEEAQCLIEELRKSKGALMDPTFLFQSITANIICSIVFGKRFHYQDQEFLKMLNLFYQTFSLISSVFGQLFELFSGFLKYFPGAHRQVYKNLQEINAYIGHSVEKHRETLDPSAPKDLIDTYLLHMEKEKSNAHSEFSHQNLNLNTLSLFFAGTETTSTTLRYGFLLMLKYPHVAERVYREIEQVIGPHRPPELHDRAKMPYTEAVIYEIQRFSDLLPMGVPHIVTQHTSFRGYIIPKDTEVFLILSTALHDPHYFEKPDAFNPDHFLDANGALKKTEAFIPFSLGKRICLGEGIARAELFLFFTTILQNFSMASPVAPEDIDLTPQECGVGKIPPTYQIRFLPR

[4] = target: T3, CYP1A2 (Homo sapiens, UniProt P05177); experiment: biochemical
T3 sequence (P05177 1-516): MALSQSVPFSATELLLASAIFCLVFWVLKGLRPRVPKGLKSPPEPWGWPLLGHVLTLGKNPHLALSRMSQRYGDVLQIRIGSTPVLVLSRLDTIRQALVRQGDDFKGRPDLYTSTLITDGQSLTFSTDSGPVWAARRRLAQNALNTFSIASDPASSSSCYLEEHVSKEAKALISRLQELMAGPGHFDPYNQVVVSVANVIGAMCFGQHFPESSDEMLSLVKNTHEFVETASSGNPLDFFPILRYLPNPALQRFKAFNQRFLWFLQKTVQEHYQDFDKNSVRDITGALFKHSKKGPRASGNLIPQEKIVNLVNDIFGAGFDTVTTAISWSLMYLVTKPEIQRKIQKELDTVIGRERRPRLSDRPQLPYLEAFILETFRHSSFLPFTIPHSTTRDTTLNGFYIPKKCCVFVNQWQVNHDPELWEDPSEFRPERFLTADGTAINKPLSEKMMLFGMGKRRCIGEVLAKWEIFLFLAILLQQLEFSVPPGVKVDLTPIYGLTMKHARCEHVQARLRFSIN

Question: Which results are given for Cc1nc2ccc(C(=O)N3CCC4(CC3)CC(=O)c3c(cnn3C(C)C)C4)cc2[nH]1 [Example 1, 1-isopropyl-1′-(2-methyl-1H-benzo[d]imidazole-5-carbonyl)-4,6-dihydrospiro[indazole-5,4′-piperidin]-7(1H)-one]?
Answer: IC50 [1]: 98 nM; sebum free cholesterol change relative to PBO [2]: no change; sebum squalene levels, increase relative to PBO [2]: 2.6 fold; reduction of sebum production by Sebumeter from baseline ([2]; PBO adjusted): 49% and > 49%; reduction of sebum free fatty acids relative to placebo ([2]; Sebutape): approximately 49%; reduction of sebum wax esters relative to placebo ([2]; Sebutape): ~53%; decrease of sebum triglycerides ([2]; Sebutape, PBO adjusted): 66%; levels of sebum free fatty acids (in words) ([2]; vs. placebo): reduced; levels of sebum wax esters (in words) ([2]; vs. placebo): reduced; IC50 [3]: > 30 µM; IC50 [4]: > 30 µM
